Data on five compounds can be found in US8680012B2, “4-phenyl-pyrane-3,5-diones,4-phenyl-thiopyrane-3,6-diones and cyclohexanetriones as novel herbicides” (Syngenta Crop Protection LLC, priority 2006, dated 2014).

What all share (assay type): in vivo
Experiment [1] relates to Alopecurus myosuroides (ALOMY). Put plainly: Example B pre-emergence herbicidal activity, glasshouse pot test. Conditions: 312 h, evaluated after 13 days, read-out: Pre-emergence activity ALOMY (100=total damage to plant; 0=no damage to plant); for pest or weed control at 1000 g/ha: rate 1000 g/ha. In short, it runs like this:
(§1)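 Compound sprayed in acetone/water (50:50) plus 0.5% Tween 20 onto potted soil one day post-sowing, or onto seedlings after 8 days. Scored 0–100 for damage after 13 days.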

Experiment [2] concerns Amaranthus retroflexus (AMARE). The description is as above. As to conditions: 312 h, evaluated after 13 days, read-out: Pre-emergence activity AMARE (100=total damage to plant; 0=no damage to plant); for pest or weed control at 1000 g/ha: rate 1000 g/ha. In a few lines:
as §1

Experiment [3] concerns Avena fatua (AVEFA). The description is as above. Conditions: 312 h, evaluated after 13 days, read-out: Pre-emergence activity AVEFA (100=total damage to plant; 0=no damage to plant); for pest or weed control at 1000 g/ha: rate 1000 g/ha. In a few lines:
as §1

Experiment [4] has as its system Echinochloa crus-galli (ECHCG). The experiment is described as above. Conditions: 312 h, evaluated after 13 days, read-out: Pre-emergence activity ECHCG (100=total damage to plant; 0=no damage to plant); for pest or weed control at 1000 g/ha: rate 1000 g/ha. In short, it runs like this:
as §1

Experiment [5] has as its system Setaria faberi (SETFA). The description is as above. Conditions: 312 h, evaluated after 13 days, read-out: Pre-emergence activity SETFA (100=total damage to plant; 0=no damage to plant); for pest or weed control at 1000 g/ha: rate 1000 g/ha. In a few lines:
as §1

The subject of experiment [6] is Solanum nigrum (SOLNI). Described as above. Conditions: 312 h, evaluated after 13 days, read-out: Pre-emergence activity SOLNI (100=total damage to plant; 0=no damage to plant); for pest or weed control at 1000 g/ha: rate 1000 g/ha. In a few lines: as §1
Experiment [7] relates to Alopecurus myosuroides (ALOMY). Put plainly: Example B post-emergence herbicidal activity, glasshouse pot test. Conditions: 312 h, evaluated after 13 days, read-out: Post-emergence activity ALOMY (100=total damage to plant; 0=no damage to plant); for pest or weed control at 1000 g/ha: rate 1000 g/ha. In a few lines: as §1
In experiment [8] the test system is Amaranthus retroflexus (AMARE). The experiment is described as above. As to conditions: 312 h, evaluated after 13 days, read-out: Post-emergence activity AMARE (100=total damage to plant; 0=no damage to plant); for pest or weed control at 1000 g/ha: rate 1000 g/ha. In a few lines:
as §1

Experiment [9] relates to Avena fatua (AVEFA). The experiment is described as above. Conditions: 312 h, evaluated after 13 days, read-out: Post-emergence activity AVEFA (100=total damage to plant; 0=no damage to plant); for pest or weed control at 1000 g/ha: rate 1000 g/ha. In a few lines: as §1
Experiment [10] relates to Echinochloa crus-galli (ECHCG). Described as above. As to conditions: 312 h, evaluated after 13 days, read-out: Post-emergence activity ECHCG (100=total damage to plant; 0=no damage to plant); for pest or weed control at 1000 g/ha: rate 1000 g/ha. In a few lines: as §1
In experiment [11] the test system is Setaria faberi (SETFA). Described as above. Conditions: 312 h, evaluated after 13 days, read-out: Post-emergence activity SETFA (100=total damage to plant; 0=no damage to plant); for pest or weed control at 1000 g/ha: rate 1000 g/ha. In short, it runs like this:
as §1

The test system of experiment [12] is Solanum nigrum (SOLNI). The experiment is described as above. Conditions: 312 h, evaluated after 13 days, read-out: Post-emergence activity SOLNI (100=total damage to plant; 0=no damage to plant); for pest or weed control at 1000 g/ha: rate 1000 g/ha. In short, it runs like this:
as §1

The structures appear in SMILES notation.

As for `CCc1ccc(-c2ccc(Cl)cc2)cc1C1=C(O)[C@@]2(C)CC[C@H](O2)C1=O` (single isomer, unassigned) [Compound A-29], the pest or weed control at 1000 g/ha in experiment [1] worked out at 90%; in experiment [2] it was 0%; with Avena fatua (AVEFA) [3], 80%; in experiment [4], 100%; in the experiment on Setaria faberi (SETFA) [5], 100%; in the experiment on Solanum nigrum (SOLNI) [6] it was 0%. Besides, the pest or weed control at 1000 g/ha in experiment [7] worked out at 100%; in experiment [8] it was 40%; in the experiment with Avena fatua (AVEFA) [9] it was 100%; in experiment [10], 100%; in the experiment with Setaria faberi (SETFA) [11] it was 100%; in the experiment on Solanum nigrum (SOLNI) [12], 60%.

For the compound `Cc1ccc(-c2ccc(Cl)c(F)c2)cc1C1=C(O)C(C)(C)C(=O)C(C)(C)C1=O` [Compound B-23], the pest or weed control at 250 g/ha in [1] (rate 250 g/ha) worked out at 0%; in [2] (rate 250 g/ha), 0%; in the experiment with Avena fatua (AVEFA) [3] (rate 250 g/ha) it was 0%; in experiment [4] (rate 250 g/ha) it was 10%; with Setaria faberi (SETFA) [5] (rate 250 g/ha) it was 0%; in the experiment with Solanum nigrum (SOLNI) [6] (rate 250 g/ha), 0%. Moreover, the pest or weed control at 250 g/ha in [7] (rate 250 g/ha) worked out at 30%; in experiment [8] (rate 250 g/ha), 0%; in the experiment on Avena fatua (AVEFA) [9] (rate 250 g/ha), 0%; in experiment [10] (rate 250 g/ha), 60%; in the experiment with Setaria faberi (SETFA) [11] (rate 250 g/ha) it was 70%; in the experiment with Solanum nigrum (SOLNI) [12] (rate 250 g/ha) it was 0%.

Take `Cc1ccc(-c2ccc(Cl)cc2)cc1C1=C(O)C(C)(C)C(=O)C(C)(C)C1=O` [Compound B-4]: the pest or weed control at 1000 g/ha was 0% in experiment [1]; 0% in [2]; 0% with Avena fatua (AVEFA) [3]; 30% in experiment [4]; 0% in the experiment on Setaria faberi (SETFA) [5]; 0% in the experiment on Solanum nigrum (SOLNI) [6]. In addition, the pest or weed control at 1000 g/ha in experiment [7] was found to be 80%; in experiment [8], 70%; with Avena fatua (AVEFA) [9], 30%; in [10] it was 90%; in the experiment with Setaria faberi (SETFA) [11], 90%; in the experiment on Solanum nigrum (SOLNI) [12], 40%.

In the case of `Cc1ccc(-c2ccc(Cl)nc2C)cc1C1=C(O)C(C)(C)OC(C)(C)C1=O` [Compound A-56], the pest or weed control at 1000 g/ha in experiment [1] stood at 10%; in [2], 0%; in the experiment with Avena fatua (AVEFA) [3], 40%; in experiment [4], 30%; in the experiment with Setaria faberi (SETFA) [5], 0%; with Solanum nigrum (SOLNI) [6], 20%. The pest or weed control at 1000 g/ha was 80% in [7]; 20% in [8]; 50% in the experiment on Avena fatua (AVEFA) [9]; 80% in experiment [10]; 80% in the experiment on Setaria faberi (SETFA) [11]; 20% in the experiment with Solanum nigrum (SOLNI) [12].

Regarding `Cc1ccc(-c2ccc(Cl)cc2)cc1C1=C(O)C2(CCOCC2)OCC1=O` (single isomer, unassigned) [Compound A-37], the pest or weed control at 1000 g/ha came out at 40% in experiment [1]; 0% in [2]; 20% in the experiment with Avena fatua (AVEFA) [3]; 30% in experiment [4]; 20% in the experiment on Setaria faberi (SETFA) [5]; 0% in the experiment with Solanum nigrum (SOLNI) [6]. Also, the pest or weed control at 1000 g/ha worked out at 70% in experiment [7]; 0% in experiment [8]; 30% in the experiment on Avena fatua (AVEFA) [9]; 90% in experiment [10]; 80% in the experiment on Setaria faberi (SETFA) [11]; 70% with Solanum nigrum (SOLNI) [12].
